Experimental data as given in PubChem BioAssay (NCI).
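Briefly, cells in 96-well plates were exposed to five compound concentrations for 48 h, and endpoints were estimated by linear interpolation. The concentration for full growth arrest is given as TGI.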

How the values were obtained:
Experiment in all cases: DTP human tumour cell line panel, 48 h
[1] = tested on: 786-0 renal
[2] = tested on: COLO 205 colon
[3] = tested on: KM12 colon
[4] = tested on: UACC-257 melanoma
[5] = tested on: UO-31 renal
[6] = tested on: SN12C renal
[7] = tested on: DLD-1 colon
[8] = tested on: HOP-62 NSCLC
[9] = tested on: OVCAR-4 ovarian
[10] = tested on: LOX IMVI melanoma
[11] = tested on: EKVX NSCLC
[12] = tested on: NCI-H226 lung
[13] = tested on: HOP-92 NSCLC
[14] = tested on: OVCAR-3 ovarian
[15] = tested on: SK-MEL-2 melanoma
[16] = tested on: LXFL 529 NSCLC
[17] = tested on: CCRF-CEM leukemia
[18] = tested on: HCC-2998 colon
[19] = tested on: OVCAR-5 ovarian
[20] = tested on: SK-MEL-5 melanoma
[21] = tested on: RXF 393 renal
[22] = tested on: SK-OV-3 ovarian
[23] = tested on: CAKI-1 renal
[24] = tested on: SR leukemia
[25] = tested on: U251 CNS
[26] = tested on: IGROV1 ovarian
[27] = tested on: DMS 273 small cell lung
[28] = tested on: SF-295 CNS
[29] = tested on: ACHN renal
[30] = tested on: SF-539 CNS
[31] = tested on: KM20L2 colon
[32] = tested on: K-562 leukemia
[33] = tested on: DMS 114 small cell lung
[34] = tested on: RPMI-8226 leukemia
[35] = tested on: A498 renal
[36] = tested on: UACC-62 melanoma
[37] = tested on: HOP-18 NSCLC
[38] = tested on: M19-MEL melanoma
[39] = tested on: RXF-631 renal
[40] = tested on: SNB-19 CNS
[41] = tested on: MALME-3M melanoma
[42] = tested on: HCT-15 colon
[43] = tested on: A549 NSCLC
[44] = tested on: HCT-116 colon
[45] = tested on: OVCAR-8 ovarian
[46] = tested on: SW-620 colon
[47] = tested on: TK-10 renal
[48] = tested on: NCI-H23 lung
[49] = tested on: SF-268 CNS
[50] = tested on: SNB-78 CNS
[51] = tested on: HT29 colon
[52] = tested on: HL-60(TB) leukemia
[53] = tested on: NCI-H460 lung
[54] = tested on: SK-MEL-28 melanoma
[55] = tested on: M14 melanoma
[56] = tested on: NCI-H522 lung
[57] = tested on: SNB-75 CNS
[58] = tested on: HS 578T breast
[59] = tested on: MCF7 breast
[60] = tested on: MDA-MB-231 breast
[61] = tested on: PC-3 prostate
[62] = tested on: NCI/ADR-RES ovarian
[63] = tested on: MDA-N
[64] = tested on: BT-549 breast
[65] = tested on: MDA-MB-435
[66] = tested on: T-47D breast
[67] = tested on: XF 498 CNS
[68] = tested on: DU-145 prostate
[69] = tested on: MOLT-4 leukemia

In the case of `CC(C)NC(C)Cc1ccccc1` (configuration not stated), the TGI [1] is reported as > 100 µM, the TGI [2] is reported as > 100 µM and the TGI [3] is reported as > 100 µM. The TGI [4] was > 100 µM, the TGI [5] was > 100 µM and the TGI [6] was > 100 µM. The TGI [7] was > 100 µM, the TGI [8] was > 100 µM and the TGI [9] was > 100 µM. For the same molecule, the TGI [10] was > 100 µM, the TGI [11] was > 100 µM and the TGI [12] was > 100 µM. The TGI [13] was > 100 µM, the TGI [14] was > 100 µM and the TGI [15] was > 100 µM. The TGI [16] was > 100 µM, the TGI [17] was > 100 µM and the TGI [18] was > 100 µM. For the same molecule, the TGI [19] was > 100 µM, the TGI [20] was > 100 µM and the TGI [21] was > 100 µM. The TGI [22] was > 100 µM, the TGI [23] was > 100 µM and the TGI [24] was > 100 µM. For the same molecule, the TGI [25] was > 100 µM, the TGI [26] was > 100 µM and the TGI [27] was > 100 µM. The TGI [28] was > 100 µM, the TGI [29] was > 100 µM and the TGI [30] was > 100 µM. The TGI [31] was > 100 µM, the TGI [32] was > 100 µM and the TGI [33] was > 100 µM. For the same molecule, the TGI [34] was > 100 µM, the TGI [35] was > 100 µM and the TGI [36] was > 100 µM. For the same molecule, the TGI [37] was > 100 µM, the TGI [38] was > 100 µM and the TGI [39] was > 100 µM. For the same molecule, the TGI [40] was > 100 µM, the TGI [41] was > 100 µM and the TGI [42] was > 100 µM. For the same molecule, the TGI [43] was > 100 µM, the TGI [44] was > 100 µM and the TGI [45] was > 100 µM. For the same molecule, the TGI [46] was > 100 µM, the TGI [47] was > 100 µM and the TGI [48] was > 100 µM. The TGI [49] was > 100 µM, the TGI [50] was > 100 µM and the TGI [51] was > 100 µM. The TGI [52] was > 100 µM, the TGI [53] was > 100 µM and the TGI [54] was > 100 µM. For the same molecule, the TGI [55] was > 100 µM, the TGI [56] was > 100 µM and the TGI [57] was > 100 µM.
`C=C1CC2(OC1=O)c1ccccc1CCc1ccccc12` was tested, and the TGI [1] was 3.17 µM, the TGI [2] was 3.57 µM and the TGI [3] was 9.4 µM. It also gave a TGI [4] of 7.9 µM, a TGI [5] of 20.6 µM and a TGI [58] of 5.03 µM. It also gave a TGI [6] of 5.47 µM, a TGI [7] of 3.4 µM and a TGI [8] of 44 µM. It also gave a TGI [9] of 4.65 µM, a TGI [10] of 2.9 µM and a TGI [59] of 16.2 µM. It also gave a TGI [11] of 20.3 µM, a TGI [12] of 26.8 µM and a TGI [13] of 3.14 µM. It also gave a TGI [60] of 21.2 µM, a TGI [14] of 3.74 µM and a TGI [15] of 12.8 µM. The TGI [61] was 27.4 µM, the TGI [16] was 3.07 µM and the TGI [17] was 2.49 µM. It also gave a TGI [18] of 6.51 µM, a TGI [19] of 27.7 µM and a TGI [20] of 28 µM. It also gave a TGI [21] of 3.07 µM, a TGI [22] of 31.9 µM and a TGI [23] of 3.82 µM. The TGI [62] was 3.04 µM, the TGI [63] was 3.34 µM and the TGI [24] was 2.3 µM. For the same molecule, the TGI [64] was 3.78 µM, the TGI [65] was 6.15 µM and the TGI [25] was 18.1 µM. The TGI [66] was 3.6 µM, the TGI [26] was 14.1 µM and the TGI [27] was 11.3 µM. For the same molecule, the TGI [28] was 29.8 µM, the TGI [29] was 3.33 µM and the TGI [30] was 4.06 µM. For the same molecule, the TGI [31] was 14.5 µM, the TGI [32] was 4.81 µM and the TGI [33] was 3.42 µM. The TGI [34] was 7.24 µM, the TGI [67] was 3.88 µM and the TGI [35] was 41.2 µM. For the same molecule, the TGI [36] was 15.9 µM, the TGI [37] was 4.61 µM and the TGI [38] was 3.36 µM. For the same molecule, the TGI [40] was 15.6 µM, the TGI [41] was 4.25 µM and the TGI [42] was 3.6 µM. The TGI [43] was 21.8 µM, the TGI [44] was 2.75 µM and the TGI [45] was 9.9 µM. For the same molecule, the TGI [46] was 3.02 µM, the TGI [47] was 7.09 µM and the TGI [68] was 32.7 µM. For the same molecule, the TGI [48] was 23 µM, the TGI [49] was 4.54 µM and the TGI [50] was 4.43 µM. The TGI [51] was 3.6 µM, the TGI [52] was 3.26 µM and the TGI [53] was 26.7 µM. It also gave a TGI [69] of 7.18 µM, a TGI [54] of 3.35 µM and a TGI [55] of 3.91 µM. The TGI [56] was 3.14 µM and the TGI [57] was 15.6 µM.
With `COc1cc2c(cc1OC)-c1c(cc(OC)c(OC)c1OC)C2=O` the TGI [1] was > 100 µM, the TGI [2] was > 100 µM and the TGI [3] was > 100 µM. The TGI [4] was > 100 µM, the TGI [5] was > 100 µM and the TGI [6] was > 100 µM. For the same molecule, the TGI [7] was > 100 µM, the TGI [8] was > 100 µM and the TGI [10] was > 100 µM. For the same molecule, the TGI [11] was > 100 µM, the TGI [12] was > 100 µM and the TGI [13] was > 100 µM. The TGI [14] was > 100 µM, the TGI [16] was > 100 µM and the TGI [17] was > 100 µM. The TGI [18] was > 100 µM, the TGI [19] was > 100 µM and the TGI [20] was > 100 µM. For the same molecule, the TGI [21] was > 100 µM, the TGI [22] was > 100 µM and the TGI [24] was > 100 µM. The TGI [25] was > 100 µM, the TGI [26] was > 100 µM and the TGI [28] was > 100 µM. For the same molecule, the TGI [29] was > 100 µM, the TGI [30] was > 100 µM and the TGI [31] was > 100 µM. For the same molecule, the TGI [32] was > 100 µM, the TGI [33] was > 100 µM and the TGI [34] was > 100 µM. For the same molecule, the TGI [36] was > 100 µM, the TGI [37] was > 100 µM and the TGI [38] was > 100 µM. The TGI [39] was > 100 µM, the TGI [40] was > 100 µM and the TGI [41] was > 100 µM. For the same molecule, the TGI [42] was > 100 µM, the TGI [43] was > 100 µM and the TGI [44] was > 100 µM. For the same molecule, the TGI [45] was > 100 µM, the TGI [46] was > 100 µM and the TGI [47] was > 100 µM. The TGI [48] was > 100 µM, the TGI [49] was > 100 µM and the TGI [51] was > 100 µM. For the same molecule, the TGI [52] was > 100 µM, the TGI [53] was > 100 µM and the TGI [69] was > 100 µM. The TGI [54] was > 100 µM, the TGI [55] was > 100 µM and the TGI [56] was > 100 µM. It also gave a TGI [57] of 95.5 µM.
